Reference: patent US20190307123A1, “KIT OF ATTRACTANTS FOR ATTRACTING THE COFFEE BERRY BORER” (INSTITUT NATIONAL DE LA RECHERCHE AGRONOMIQUE, priority 2016, published 2019)
“Also recorded” adds a separate entry of the source.

How the values were obtained:
[1] = tested on: coffee berry borer Hypothenemus hampei; assay: Field trapping trials in Brazil (Unitrap traps in arabica coffee plantation); assay type: in vivo; details: Brazil field tests, result in words
Method: The trapping trials were carried out between Jan. 8 and Mar. 31, 2016, during the fruit maturation phase, in an arabica coffee plantation conducted under biodynamic conditions in the municipality of […] Boa Vista, in the State of São Paulo in Brazil, at an altitude of 800 m. For each test, three plots received trials, each representing a random complete block. The Coffea arabica var. tupi plantations were set up at the beginning of the 2000s in combination with shade trees (Acacia mangium, Acacia auriculiformis, […] sepium, Leucaena leucocephala). The rows are oriented along the contour lines with a variable spacing according to the plots (0.6 to 0.75×3 to 3.6 meters), and the shade trees are planted at regular intervals in the rows of coffee trees. All of the plots benefit from considerable annual maintenance: regular cutting between the rows, organic fertilization and weeding during fruit formation, foliar fertilization during bean swelling and maturation. […] The traps (Pherobank Unitrap wing model) were placed directly in the coffee trees, suspended from the branches at a height of 1.20 meters or as high as possible when the plants were smaller. The spacing between the traps is approximately 20 meters. The products used were supplied by Sigma-Aldrich. They are: The products were placed in 2 ml glass vials, in which the opening of the septum allows free diffusion by evaporation. A first diffuser contained 0.5 ml of ethanol and 0.5 ml of methanol. A second diffuser contained, where appropriate, the terpenoids diluted in paraffin (0.5 ml of (-)-limonene or 0.5 ml of (+)-limonene, 0.5 ml of paraffin and where appropriate 0.1 ml of (-)-α-pinene). The number of coffee berry borers trapped was recorded daily, and the modes tested were modified each week which represents a test. Each recording in each block represents a repetition. Between each test, the traps were washed with a 2% TFD4 solution and the diffusers were changed.

[2] = tested on: coffee berry borer Hypothenemus hampei; assay: Field trapping trials in Costa Rica (Brocap traps in arabica coffee plantation); assay type: in vivo; details: Costa Rica field tests; result in words
Method: The trials carried out above were supplemented in 2017 in Costa Rica, in a context of larger coffee berry borer populations. The trapping trials were carried out between Feb. 21 and Apr. 27, 2017, in the commercial arabica coffee plantations of the CATIE (Centro Agronómico Tropical de Investigación y Enseñanza) [The Tropical Agricultural Research and Higher Education Center] in Turrialba, Costa Rica. […] The Coffea arabica var. caturra plantations, located at approximately 600 meters of altitude, were planted in 2010 in combination with Erythrina poeppigiana as shade trees. The rows are oriented along the contour lines with a spacing of 80 cm between the plants and 2 meters between the rows (6300 plants/ha). All of the plots benefit from considerable annual maintenance: pluriannual weeding or chemical weed-killing between the rows, chemical fertilization during fruit formation, fungicide and optionally insecticide treatments in the event of coffee berry borer infestation. The yields therefrom are medium, about 1000 kg/ha/year of green bean coffee. Brocap® traps were placed directly in the coffee trees, suspended from the branches at a height of approximately 1 meter and with a spacing between the traps of approximately 20 meters. […] The number of coffee berry borers trapped was recorded daily. […]

SMILES	Effect on number of borers trapped when combined with the ethanol/methanol mixture, compared with the alcohols alone [1]	Effect on number of borers trapped when combined with the ethanol/methanol mixture, compared with the ethanol/methanol mixture alone [2]	Effect on number of borers trapped when combined with the ethanol/methanol mixture, compared with the alcohols alone ([1]; listed as (+) enantiomer of limonene)
C=CC(C)(O)CCC=C(C)C (stereo not drawn) [linalool, reference compound]	virtually disappears		
CCCCC(CC)CO (racemic) [2-ethyl-1-hexanol, 2-Ethyl-1-hexanol]		clearly increased; also recorded: makes it possible to increase the trappings	
C=C(C)[C@@H]1CC=C(C)CC1 [(−)-limonene, (S)-(−)-Limonene]	improves the attractiveness; also recorded: significantly increased; also recorded: clearly increased	clearly increased	
C=C(C)[C@H]1CC=C(C)CC1 [(+)-limonene, (R)-(+)-Limonene, reference compound]	did not make it possible to improve the captures		does not increase the number of borers trapped
